Assay results published in the NIST ThermoML archive (doi:10.1016/j.jct.2014.12.001).
Numbers after ± are expanded uncertainties.

Conditions: 100 kPa, Liquid, Parallel plate method

thermal conductivity (283.15 K) [W/m/K]	thermal conductivity (303.15 K) [W/m/K]	thermal conductivity (323.15 K) [W/m/K]	thermal conductivity (343.15 K) [W/m/K]	Compound
0.239 ± 0.02	0.248 ± 0.02	0.257 ± 0.02	0.266 ± 0.02	OCCO [1,2-ethanediol]
0.206 ± 0.02	0.207 ± 0.02	0.206 ± 0.02	0.207 ± 0.02	CC(O)CO (stereo not drawn) [1,2-propanediol]
